Results published in PMC12118576, “Selective Glycopolymer Inhibitors of Galectin-3: Supportive Anti-Cancer Agents Protecting Monocytes and Preserving Interferon-Gamma Function” (International Journal of Nanomedicine, 2025).
“And” between values parts separate entries of the source, which are not always exact repeats. Equal entries are not always repeated. Where two headings read alike, the source gives them in different places.

Tests used:
human Gal-3 = target: T1, human Gal-3 (Homo sapiens, UniProt P17931); assay: Competitive ELISA-type assay: inhibition of Gal-3 binding to immobilized asialofetuin (ASF); settings: for Selectivity for Gal-3: IC50 for Gal-1/IC50 for Gal-3
T1 construct: made in house; host or cells: E. coli Rosetta 2(DE3)pLysS
Experimental: Microtiter plates (Nunc Immuno Sorb, ThermoFisher Scientific, USA) were coated with ASF (0.1 µM in PBS, pH 7.5, 50 µL/well) and incubated overnight. The wells were washed with 3×250 µL of PBS containing 0.05% Tween (repeated after each step). The wells were then blocked by 2% w/v BSA in PBS buffer (250 µL/well) for 1 h. Serial dilutions of the ligands (glycopolymers or oligosaccharides) in EPBS (2 mM EDTA in PBS) were incubated with Gal-1 or Gal-3 (1.25 µM final concentration) for 2 h. The residual bound galectin was labeled with anti-His antibody conjugated to horseradish peroxidase (Santa Cruz; 1:1000 dilution in PBS, 1 h). TMB One substrate solution (Kem-En-Tech, Denmark; 50 µL/well) was added, and the reactions were incubated until visible blue staining appeared (3–20 min). The reaction was stopped by adding 3 M HCl (50 µL per well), resulting in a color shift to yellow, which was determined spectrophotometrically by an absorbance microplate reader (Sunrise Tecan Group Ltd, CH). The intensity of the signal at 450 nm corresponded to the amount of galectin bound to the wells. Non-linear regression (dose–response inhibition-variable slope) of the sigmoidal curves was used to calculate the values of half-maximal inhibitory constants (IC50) from at least six independent experiments using GraphPad Prism 7 (GraphPad Software, USA).
For the affinity measurement, the competitive ELISA assay with ASF as an immobilized competitor ligand was employed.[51] […] The inhibitory potency of the prepared glycopolymers was compared to the respective monovalent standards (LN1-LN2-tBoc, LN2-LN2-tBoc, LDN-LN2-tBoc) to calculate their relative potencies (rp) for inhibition of Gal-3 (Table 1). Relative potency values thus disclose the extent of the so-called multivalency effect of the glycopolymer – the ability of a ligand bound to a multivalent carrier to get easier access and orientation to the lectin-binding site.[52]

J774A.1 macrophages = assay: Gal-3-induced apoptosis of J774A.1 macrophages, Annexin V flow cytometry; format: cell-based, murine; settings: 10 µM Gal-3, 24 h, no glycopolymer
Experimental: For flow cytometry studies, cultured undifferentiated (without any LPS and cytokines) J774A.1 murine macrophages were seeded in a concentration of 10^5 cells/well of the 24-well plate. After 24 h of cultivation, cells were pretreated with the desired concentration of glycopolymers for 5 minutes and afterward treated with 10 μM Gal-3 for 24 h. After harvesting of cells, early and late apoptoses of Gal-3-treated J774A.1 cells in the presence or absence of glycopolymers were evaluated using eBioscience Annexin V apoptosis detection kit (Thermo Fisher Scientific). Flow cytometry was performed using FACS Canto II (BD Biosciences, Franklin Lakes, NJ, USA). Apoptotic half-maximal inhibitory concentrations (IC50) of individual glycopolymers were calculated by nonlinear regression of log(glycopolymer concentration) versus apoptosis response using GraphPad Prism 8 software (version 8.0.1; GraphPad Software, La Jolla, CA, USA).
Tumor-associated macrophages (TAMs) are defined as M1 or M2 subtypes, which differ in their roles in carcinogenesis.[56] Phenotypically M2 macrophages, which are usually more abundant inside tumors and seem to be mainly responsible for the spread of cancer,[57] are chemoattracted into the tumor mass by the Gal-3 gradient.[11] Therefore, we aimed to investigate the inhibitory potential of prepared glycopolymers towards Gal-3 in the context of monocytes and macrophages. […]

[1] = target: T2, recombinant human Gal-3 biotinylated at the lysine of the N-terminal AVI-tag (human, UniProt P17931 1-250, biotin on the lysine of the AVI-tag (…)); assay: depletion from solution by coated magnetic beads, ELISA of the supernatant; biotinylated Gal-3 on Dynabeads M-280 Streptavidin; increasing amount of beads incubated with glycosylated IFNγ, 1 h, room temperature; beads separated, IFNγ left in the supernatant measured by ELISA; settings: both partners purified
T2 construct: galectin-3, human; Gal-3-AVI construct in pET-Duet1; Held on streptavidin Dynabeads M-280 through the biotin; also called Gal-3-AVI; biotinylated Gal-3; source: E. coli BL21 (DE3) with birA biotin ligase, purified (Ni-NTA)

[2] = IC50 per glycan, Gal-3 1.25 µM, binding to immobilized ASF, read-out: IC50 [µM]/Glycan

T1 sequence (P17931 whole entry): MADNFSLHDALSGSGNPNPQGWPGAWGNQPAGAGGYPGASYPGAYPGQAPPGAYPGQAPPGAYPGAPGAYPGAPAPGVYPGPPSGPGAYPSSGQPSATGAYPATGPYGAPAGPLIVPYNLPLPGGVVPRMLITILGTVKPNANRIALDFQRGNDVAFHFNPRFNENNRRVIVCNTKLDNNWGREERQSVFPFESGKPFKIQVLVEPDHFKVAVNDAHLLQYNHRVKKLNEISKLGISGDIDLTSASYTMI
T2 sequence (P17931 whole entry): as above

## CC(=O)N[C@@H]1[C@@H](O)[C@H](O[C@@H]2O[C@H](CO)[C@H](O)[C@H](O[C@@H]3O[C@H](CO)[C@@H](O[C@@H]4O[C@H](CO)[C@H](O)[C@H](O)[C@H]4NC(C)=O)[C@H](O)[C@H]3NC(C)=O)[C@H]2O)[C@@H](CO)O[C@H]1NC(=S)NCCNC(=O)OC(C)(C)C [Glycopolymer 6, (tert-Butoxycarbonylamino)ethylthioureidyl 2-Acetamido-2-Deoxy-β-D-Galactopyranosyl-(1→4)-2-Acetamido-2-Deoxy-β-D-Glucopyranosyl-(1→3)-β-D-Galactopyranosyl-(1→4)-2-Acetamido-2-Deoxy-β-D-Glucopyranoside]
Human Gal-3
  Selectivity for Gal-3: 13
Human Gal-3; [2]
  IC50: 7.4 ± 0.5 µM

## CC(=O)N[C@@H]1[C@@H](O)[C@H](O[C@@H]2O[C@H](CO)[C@H](O)[C@H](O[C@@H]3O[C@H](CO)[C@@H](O[C@@H]4O[C@H](CO)[C@H](O)[C@H](O)[C@H]4O)[C@H](O)[C@H]3NC(C)=O)[C@H]2O)[C@@H](CO)O[C@H]1NC(=S)NCCNC(=O)OC(C)(C)C [Glycopolymer 5, (tert-Butoxycarbonylamino)ethylthioureidyl β-D-Galactopyranosyl-(1→4)-2-Acetamido-2-Deoxy-β-D-Glucopyranosyl-(1→3)-β-D-Galactopyranosyl-(1→4)-2-Acetamido-2-Deoxy-β-D-Glucopyranoside]
Human Gal-3
  Selectivity for Gal-3: 10
Human Gal-3; [2]
  IC50: 10.2 ± 3.2 µM

## CC(=O)N[C@@H]1[C@@H](O)[C@H](O[C@@H]2O[C@H](CO)[C@H](O)[C@H](O[C@@H]3O[C@H](CO)[C@@H](O)[C@H](O[C@@H]4O[C@H](CO)[C@H](O)[C@H](O)[C@H]4O)[C@H]3NC(C)=O)[C@H]2O)[C@@H](CO)O[C@H]1NC(=S)NCCNC(=O)OC(C)(C)C [Glycopolymer 4, (tert-Butoxycarbonylamino)ethylthioureidyl β-D-Galactopyranosyl-(1→3)-2-Acetamido-2-Deoxy-β-D-Glucopyranosyl-(1→3)-β-D-Galactopyranosyl-(1→4)-2-Acetamido-2-Deoxy-β-D-Glucopyranoside]
Human Gal-3
  Selectivity for Gal-3: 17
Human Gal-3; [2]
  IC50: 27.1 ± 4.4 µM
Human Gal-3; concentration required to inhibit Gal-3 binding to immobilized ASF by 50%, read-out: IC50
  IC50: 27.1 ± 4.4 µM

## Gal-3: Recombinant human galectin-3, N-terminal His-tagged protein construct produced in E. coli; used to induce apoptosis
J774A.1 macrophages
  apoptosis of J774A.1 cells induced by Gal-3: 20.7 ± 0.8% and 15–25%

B1: glycosylated human IFNγ (natural protein, UniProt P01579 24-161, looked up)
chain: QDPYVKEAENLKKYFNAGHSDVADNGTLFLGILKNWKEESDRKIMQSQIVSFYFKLFKNFKDDQSIQKSVETIKEDMNVKFFNSNKKKRDDFEKLTNYSVTDLNVQRKAIHELIQVMAELSPAAKTGKRKRSQMLFRG
modifications: glycosylated
notes: interferon-gamma, human, glycosylated; also called interferon-gamma; INFγ; source: bought: Sigma-Aldrich
[1]
  binding result: binds
